Assay results reported in patent US11185554B2 (priority 2016, dated 2021).

Assays:
[1] = system: neutrophils and T cells in the peripheral blood; design: species or system C57BL/6J mice; conditions: mouse, in vivo
free radicals (ROS/RNS) = system: free radicals (ROS/RNS); design: species or system C57BL/6J mice; conditions: mouse, in vivo
ebola virus = system: ebola virus; design: species or system C57BL/6J mice; conditions: mouse, in vivo
[2] = system: cytokines, chemokines in the peripheral blood; design: species or system C57BL/6J mice; conditions: mouse, in vivo
influenza = conditions: mouse, in vivo; cited from earlier work
EBOV = system: EBOV; design: species or system C57BL/6J mice; conditions: mouse, in vivo

For `CCCCCC/C=C\CCCCCCCCCC(=O)N[C@H]1[C@H](OC[C@H]2O[C@H](OP(=O)(O)O)[C@H](NC(=O)CC(=O)CCCCCCCCCCC)[C@@H](OCCCCCCCCCC)[C@@H]2O)O[C@H](COC)[C@@H](OP(=O)(O)O)[C@@H]1OCC[C@@H](CCCCCCC)OC` [eritoran, α-D-Glucopyranose, 3-O-decyl-2-deoxy-6-O-[2-deoxy-3-O-[(3R)-3-methoxydecyl)-6-O-methyl-2-[[(-11Z)-1-oxo-11-octadecenyl)amino]-4-O-phosphono-3-D-glucopyranosyl]-2-[(1,3-dioxotetradecyl)amino]-1-(dihydrogen phosphate)], the “B-cells, NK-cells and monocytes populations” value [1] was “no effect”, the “absolute count of CD3+, CD3+CD4+ and CD3+CD8+ T cells” value [1] was “further reduced” and the “expansion of the neutrophil population (absolute counts)” value [1] was “blocked expansion”. For the same compound, the “granulocytes, absolute count” value [1] was 2,786 cells/μl, the “increase of percentages of CD4+ T cells positive for IL-4” value [1] was 3.8 fold and the “increase of percentages of CD4 T cells positive for CD69” value [1] was 2.8 fold. The “levels of IFNγ-secreting CD4+ T cells” value [1] was “dramatically reduced”, the “levels of IFNγ-secreting CD8+ T cells” value [1] was “dramatically reduced” and the “levels of IL-17A-secreting CD4+ T cells” value [1] was “dramatically reduced”. For the same compound, the “percentages of CD11b+Ly6G/Ly6C+ neutrophils in gated granulocytes, placebo versus eritoran” value [1] was “no difference”, the “percentages of neutrophils expressing activation marker CD64” value [1] was “significantly increased” and the “percentages of neutrophils expressing activation marker CD69” value [1] was “significantly increased”. For the same compound, the “ratio of CD11b+Ly6G/Ly6C+ neutrophils to CD3+ T-lymphocytes” value [1] was 11.05, the “ratio of CD11b+Ly6G/Ly6C+ neutrophils to total lymphocytes” value [1] was 2.15 and the “reduction of free radicals (ROS/RNS)” value (free radicals (ROS/RNS)) was 23%. The “protection against ebola virus challenge” value (ebola virus) was “does not protect”, the “decrease of serum levels of leukemia inhibitory factor (LIF)” value [2] was 10.3 fold and the “increase in the production of KC” value [2] was 10.0 fold. The “increase of levels of G-CSF” value [2] was 7.0 fold, the “increase of levels of M-CSF” value [2] was 58% and the “reduction of serum IL-7 levels” value [2] was 41%. For the same compound, the “serum IL-6 level” value [2] was “reduced”, the “serum IL-9 level” value [2] was “reduced” and the “serum IL-10 level” value [2] was “reduced”. For the same compound, the “serum IL-13 level” value [2] was “reduced”, the “serum MIG level” value [2] was “significantly decreased” and the “serum MIP-1α level” value [2] was “significantly decreased”. For the same compound, the “serum MIP-1β level” value [2] was “significantly decreased”, the “serum MIP-2 level” value [2] was “significantly decreased” and the “serum RANTES level” value [2] was “significantly decreased”. For the same compound, the “serum TNFα level” value [2] was “reduced”, the “serum IP-10 level” value ([2]; ip) was “significantly decreased” and the “protection from lethal influenza challenge” value (influenza) was “protected”. The “reduction of viremia versus placebo” value (EBOV) was “two-logs” and the “viremia (quantitative RT-PCR)” value (EBOV) was 10^5 genome equivalents per mL.
